Reference: paper PMC11887451, “Leveraging Immunogenic Cell Death to Enhance the Immune Response against Malignant Pleural Mesothelioma Tumors” (Journal of the American Chemical Society, 2025)
Entries after “also recorded” stand apart in the source; their conditions may differ.

How the values were obtained:
[1] = tested on: M0-differentiated THP-1 cells; assay: MTT-based viability assay on M0-differentiated THP-1 cells, 72 h; type: cell-based, human; conditions: 72-h exposure, compared with AB12 cells
Method: incubated for an additional 50 min. Subsequently, the medium was aspirated, and the purple formazan crystals formed in viable cells were dissolved in DMSO (100 μL/well). Optical densities were measured at 570 nm using a BioTek Synergy H1 microplate and MultiskanTM SkyHigh plate readers. The quantity of viable cells was expressed in terms of treated/control (T/C) values in comparison to untreated control cells, and 50% inhibitory concentrations (IC 50) were calculated from concentration-effect curves by interpolation. An evaluation was based on means from at least three independent experiments, each comprising three replicat es per […]
For macrophage analyses, the acute monocytic leukemia -derived THP-1 cell line (ATCC) was used as a model. 1 × 104 THP-1 cells were seeded per well in 96-well plates in RPMI-1640 with 10% FCS and treated for 24 h with 75 nM phorbol 12-myristate 13-acetate (PMA, Sigma-Aldrich) to induce M0 macrophage differentiation. After the differentiation period, PMA was replaced by fresh culture medium to recover for 2h. Afterwards increasing concentrations of 1G, 5A, 5B and 5G were added for a 72-h continuous drug exposure assay. In parallel, the murine mesothelioma cell line AB12 was seeded into 96 -well plates at 2.5 × 10^3 cells/well and were allowed to attach for 24 h. Gold compounds were added to the cells as described for the THP-1 model above. After the incubation period of 72 h, cell viability was determined by an MTT-based assay (EU4U, Biomedica) following the instructions of the manufacturer. DMSO had not impact on the cell viability at the concentrations used. […]

[2] = tested on: calreticulin (CRT) in AB12 cells; assay: CRT detection, flow cytometry; type: cell-based, mouse; conditions: AB12, 5 × IC50 (72 h), 120 min
Method: page 23: concentrations for 100 min at 37 °C. After the treatment, the supernatant was collected in 2 mL microtubes, centrifuged (300 × g, 5 min) and the media was removed. The adherent cells were then trypsinized with 500 μL of trypsin at 37 °C for 5 min. Next, 1 mL of medium was added to neutralize trypsin and the resulting cell suspension was combined with the supernatant. The wells were washed with 200 μL of PBS, which was also combined with the supernatant. The combined solutions were centrifuged (300 × g, 5 min), and the resulting pellets were washed with PBS (2 × 1 mL) and resuspended in 200 μL of Annexin V binding buffer. […] Cell death was evaluated by flow cytometry using a CytoFLEX Flow Cytometer equipped with a 488 nm laser and a 638 nm laser (Beckman Coulter, Brea, CA, USA). The cells were excited by the 488 nm laser, and fluorescence emissions were detected at 525/40 nm for FITC (Annexin V) and at 610/20 nm for ECD (PI). […] The percentage of necrosis was determined by calculating the sum of cells in Q1 and Q2. […] Next, cells were incubated with CRT antibody conjugated with AlexaFluor S23 page 24: 488 (62304S, Cell Signaling Technology) at 4 °C overnight, washed twice with PBS, reconstituted in 500 µL of PBS and analyzed by flow cytometry using a CytoFLEX Flow Cytometer equipped with a 488 nm laser and a 638 nm laser (Beckman Coulter, Brea, CA, USA). […]

Compound | sensitivity of THP-1-derived macrophages [1] | CRT expression (in words) [2]
F[P-](F)(F)(F)(F)F.c1cc[c]2c(c1)Nc1cccc[n+]1[Au-]21[S]C(=[N+]2CCCCCC2)[S]1 (centres unmarked) [5G] | highly sensitive; also recorded: increased sensitivity in comparison to the malignant mesothelioma cells | 
Nc1nc2[nH]cc(CCc3ccc(C(=O)N[C@@H](CCC(=O)O)C(=O)O)cc3)c2c(=O)[nH]1 [Pemetrexed, pemetrexed, reference compound] |  | no changes in CRT expression
